From patent US20260022096A1, “NOVEL SULFONAMIDES AND THEIR USE AS NEUROPROTECTIVE AND/OR NEURORESTORATIVE AGENTS” (GENECODE, priority 2022, published 2026)

Biological target: T1, GFRα1-RET (Homo sapiens, UniProt P56159)
T1 construct: expressed in transfected cells; host or cells: MG87 murine fibroblasts, stably transfected
T1 sequence (P56159 25-429 limits assumed): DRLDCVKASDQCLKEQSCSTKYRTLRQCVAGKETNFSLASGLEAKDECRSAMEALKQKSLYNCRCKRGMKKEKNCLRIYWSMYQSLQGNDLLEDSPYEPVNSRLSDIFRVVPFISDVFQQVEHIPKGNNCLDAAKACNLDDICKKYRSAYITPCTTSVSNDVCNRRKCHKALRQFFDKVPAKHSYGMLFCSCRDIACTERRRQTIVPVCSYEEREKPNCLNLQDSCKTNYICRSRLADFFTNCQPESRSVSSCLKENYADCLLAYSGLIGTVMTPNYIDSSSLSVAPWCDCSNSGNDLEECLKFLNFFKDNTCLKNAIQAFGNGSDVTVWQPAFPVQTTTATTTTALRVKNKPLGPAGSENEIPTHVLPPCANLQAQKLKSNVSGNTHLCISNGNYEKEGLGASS
Assay: Elk1 reporter-gene (luciferase) assay in cells expressing GFRα1-RET
Assay type: cell-based
Settings: MG87 murine fibroblasts stably transfected with PathDetect Elk-1, GFRα1 and RET, 6 concentrations, agonist/activator activity
Procedure: For ECso determination, a dose-response test was performed using 6 concentrations of each tested compound. Dose-response curves were fitted using the sigmoidal dose-response (variable slope) analysis in GraphPad Prism program (Graph Pad Inc) and ECso of agonist/activator activity was calculated. Dose-response experiments were all performed in duplicate, two times independently.

Row | SMILES | EC50 [nM]
1 | Cc1cc(S(=O)(=O)N2CCC(c3ccccc3)CC2)cc(N2[C@@H]3CC[C@H]2CN(C(=O)c2ccc(F)cc2Cl)C3)c1O [compound 090, (2-chloro-4-fluoro-phenyl)-[(1S,5R)-8-[2-hydroxy-3-methyl-5-[(4-phenyl-1-piperidyl)sulfonyl]phenyl]-3,8-diazabicyclo[3.2.1]octan-3-yl]methanone] | < 1000
2 | COc1c(Cl)cc(S(=O)(=O)NC(C)(C)C)cc1N1[C@@H]2CC[C@H]1CN(C(=O)c1ccc(F)cc1Cl)C2 [compound 114, N-tert-butyl-3-chloro-5-[(1S,5R)-3-(2-chloro-4-fluoro-benzoyl)-3,8-diazabicyclo[3.2.1]octan-8-yl]-4-methoxy-benzenesulfonamide] | < 1000
3 | CCCN(C)S(=O)(=O)c1ccc(OCOC)c(N2[C@@H]3CC[C@H]2CN(C(=O)c2ccc(F)cc2Cl)C3)c1 [compound 031, 3-[(1S,5R)-3-(2-chloro-4-fluoro-benzoyl)-3,8-diazabicyclo[3.2.1]octan-8-yl]-4-(methoxymethoxy)-N-methyl-N-propyl-benzenesulfonamide] | 1000 to 10000
4 | CCCN(C)S(=O)(=O)c1ccc(OC)c(N2CCN(C(=O)c3ccc(F)cc3C(F)(F)F)CC2COC)c1 (racemic) [compound 022, 4-methoxy-N-methyl-N-propyl-3-[rac-(2R)-4-[4-fluoro-2-(trifluoromethyl)benzoyl]-2-(methoxymethyl)piperazin-1-yl]benzenesulfonamide] | 10000 to 50000
5 | COc1ccc(S(=O)(=O)N2CCC(F)CC2)cc1N1[C@@H]2CC[C@H]1CN(C(=O)c1ccc(F)cc1Cl)C2 [compound 006] | 1000 to 10000
6 | CC(C)(NS(=O)(=O)c1cc(Cl)c(O)c(N2[C@@H]3CC[C@H]2CN(C(=O)c2ccc(F)cc2Cl)C3)c1)C(F)(F)F [compound 105, 3-chloro-5-[(1S,5R)-3-(2-chloro-4-fluoro-benzoyl)-3,8-diazabicyclo[3.2.1]octan-8-yl]-4-hydroxy-N-(2,2,2-trifluoro-1,1-dimethyl-ethyl)benzenesulfonamide] | < 1000
7 | COc1ccc(S(=O)(=O)N2CCC(c3cccc(C#N)c3)CC2)cc1N1[C@@H]2CC[C@H]1CN(C(=O)c1ccc(F)cc1Cl)C2 [compound 040, 3-[1-[3-[(1S,5R)-3-(2-chloro-4-fluoro-benzoyl)-3,8-diazabicyclo[3.2.1]octan-8-yl]-4-methoxy-phenyl]sulfonyl-4-piperidyl]benzonitrile] | < 1000
8 | Cc1c(Cl)cc(S(=O)(=O)NC(C)(C)C)cc1N1[C@@H]2CC[C@H]1CN(C(=O)c1ccc(F)cc1Cl)C2 [compound 074, N-tert-butyl-3-chloro-5-[(1S,5R)-3-(2-chloro-4-fluoro-benzoyl)-3,8-diazabicyclo[3.2.1]octan-8-yl]-4-methyl-benzenesulfonamide] | < 1000
9 | CCCN(C)S(=O)(=O)c1ccc(OC)c(N2C3CCC2CN(C(=O)c2ccc(F)cc2C(F)(F)F)C3)c1 [compound 024, 3-[3-[4-fluoro-2-(trifluoromethyl)benzoyl]-3,8-diazabicyclo[3.2.1]octan-8-yl]-4-methoxy-N-methyl-N-propyl-benzenesulfonamide] | 1000 to 10000
10 | O=C(c1ccc(F)cc1Cl)N1C[C@H]2CC[C@@H](C1)N2c1cc(S(=O)(=O)N2CCC(F)CC2)cc2c1OCC2 [compound 130, (2-chloro-4-fluoro-phenyl)-[(1S,5R)-8-[5-[(4-fluoro-1-piperidyl)sulfonyl]-2,3-dihydrobenzofuran-7-yl]-3,8-diazabicyclo[3.2.1]octan-3-yl]methanone] | < 1000
11 | COc1ccc(S(=O)(=O)NC(C)(C)C)cc1N1[C@@H]2CC[C@H]1CN(C(=O)c1cc(F)c(F)cc1Cl)C2 [compound 129, N-tert-butyl-3-[(1S,5R)-3-(2-chloro-4,5-difluoro-benzoyl)-3,8-diazabicyclo[3.2.1]octan-8-yl]-4-methoxy-benzenesulfonamide] | < 1000
12 | O=C(c1ccc(F)cc1Cl)N1C[C@H]2CC[C@@H](C1)N2c1cc(S(=O)(=O)N2CCC(c3ccccc3)CC2)ccc1O [compound 063, (2-chloro-4-fluoro-phenyl)-[(1S,5R)-8-[2-hydroxy-5-[(4-phenyl-1-piperidyl)sulfonyl]phenyl]-3,8-diazabicyclo[3.2.1]octan-3-yl]methanone] | < 1000
13 | Cc1c(Cl)cc(S(=O)(=O)N(C)C(C)(C)C)cc1N1[C@@H]2CC[C@H]1CN(C(=O)c1ccc(F)cc1Cl)C2 [compound 132, N-tert-butyl-3-chloro-5-[(1S,5R)-3-(2-chloro-4-fluoro-benzoyl)-3,8-diazabicyclo[3.2.1]octan-8-yl]-N,4-dimethyl-benzenesulfonamide] | < 1000
14 | CCCN(C)S(=O)(=O)c1ccc(OCC)c(N2[C@@H]3CC[C@H]2CN(C(=O)c2ccc(F)cc2Cl)C3)c1 [compound 029] | 1000 to 10000
15 | CCN(CC)S(=O)(=O)c1cnc(O)c(N2[C@@H]3CC[C@H]2CN(C(=O)c2ccc(F)cc2Cl)C3)c1 [compound 035] | 10000 to 50000
16 | CCCN(C)S(=O)(=O)c1ccc(C2CC2)c(N2[C@@H]3CC[C@H]2CN(C(=O)c2ccc(F)cc2Cl)C3)c1 [compound 079] | < 1000
17 | CCc1cc(S(=O)(=O)N2CCC(c3ccccc3)CC2)cc(N2[C@@H]3CC[C@H]2CN(C(=O)c2ccc(F)cc2Cl)C3)c1O [compound 094, (2-chloro-4-fluoro-phenyl)-[(1S,5R)-8-[3-ethyl-2-hydroxy-5-[(4-phenyl-1-piperidyl)sulfonyl]phenyl]-3,8-diazabicyclo[3.2.1]octan-3-yl]methanone] | < 1000
18 | COC(=O)c1ccc(C2CCN(S(=O)(=O)c3ccc(OC)c(N4[C@@H]5CC[C@H]4CN(C(=O)c4ccc(F)cc4Cl)C5)c3)CC2)cc1 [compound 042, methyl 4-[1-[3-[(1S,5R)-3-(2-chloro-4-fluoro-benzoyl)-3,8-diazabicyclo[3.2.1]octan-8-yl]-4-methoxy-phenyl]sulfonyl-4-piperidyl]benzoate] | < 1000
19 | CCCN(C)S(=O)(=O)c1ccc(F)c(N2[C@@H]3CC[C@H]2CN(C(=O)c2ccc(F)cc2Cl)C3)c1 [compound 026] | 1000 to 10000
20 | CN(C(C)(C)C)S(=O)(=O)c1cc(Cl)c(OCc2ccncc2)c(N2[C@@H]3CC[C@H]2CN(C(=O)c2ccc(F)cc2Cl)C3)c1 [compound 138, N-tert-butyl-3-chloro-5-[(1S,5R)-3-(2-chloro-4-fluoro-benzoyl)-3,8-diazabicyclo[3.2.1]octan-8-yl]-N-methyl-4-(4-pyridylmethoxy) benzenesulfonamide] | < 1000
21 | O=C(c1ccc(F)cc1Cl)N1C[C@H]2CC[C@@H](C1)N2c1cc(S(=O)(=O)N2CCC(c3ccccc3)CC2)ccc1Cl [compound 066, (2-chloro-4-fluoro-phenyl)-[(1S,5R)-8-[2-chloro-5-[(4-phenyl-1-piperidyl)sulfonyl]phenyl]-3,8-diazabicyclo[3.2.1]octan-3-yl]methanone] | < 1000
22 | O=C(c1ccc(F)cc1Cl)N1C[C@H]2CC[C@@H](C1)N2c1cc(S(=O)(=O)N2CCC(c3ccccc3)CC2)cc2c1OCCO2 [compound 118, (2-chloro-4-fluoro-phenyl)-[(1S,5R)-8-[7-[(4-phenyl-1-piperidyl)sulfonyl]-2,3-dihydro-1,4-benzodioxin-5-yl]-3,8-diazabicyclo[3.2.1]octan-3-yl]methanone] | < 1000
23 | Cn1cnc(-c2ccc(S(=O)(=O)N3CCC(c4ccccc4)CC3)cc2N2[C@@H]3CC[C@H]2CN(C(=O)c2ccc(F)cc2Cl)C3)c1 [compound 082, (2-chloro-4-fluoro-phenyl)-[(1S,5R)-8-[2-(1-methylimidazol-4-yl)-5-[(4-phenyl-1-piperidyl)sulfonyl]phenyl]-3,8-diazabicyclo[3.2.1]octan-3-yl]methanone] | 1000 to 10000
24 | COc1ccc(S(=O)(=O)N2CCC(C(F)(F)F)CC2)cc1N1[C@@H]2CC[C@H]1CN(C(=O)c1ccc(F)cc1Cl)C2 [compound 007, (2-chloro-4-fluoro-phenyl)-[(1S,5R)-8-[2-methoxy-5-[[4-(trifluoromethyl)-1-piperidyl]sulfonyl]phenyl]-3,8-diazabicyclo[3.2.1]octan-3-yl]methanone] | < 1000
25 | CC(C)(C)NS(=O)(=O)c1cc(N2[C@@H]3CC[C@H]2CN(C(=O)c2ccc(F)cc2Cl)C3)c(O)c(C(F)(F)F)c1 [compound 089] | 1000 to 10000
26 | CN1CCc2cc(S(=O)(=O)N3CCC(c4ccccc4)CC3)cc(N3[C@@H]4CC[C@H]3CN(C(=O)c3ccc(F)cc3Cl)C4)c21 [compound 119, (2-chloro-4-fluoro-phenyl)-[(1S,5R)-8-[1-methyl-5-[(4-phenyl-1-piperidyl)sulfonyl]indolin-7-yl]-3,8-diazabicyclo[3.2.1]octan-3-yl]methanone] | < 1000
27 | COc1ccc(S(=O)(=O)N2CCN(Cc3ccccc3)CC2)cc1N1[C@@H]2CC[C@H]1CN(C(=O)c1ccc(F)cc1Cl)C2 [compound 014] | 1000 to 10000
28 | CN(C(C)(C)C)S(=O)(=O)c1cc(Cl)c(OCCO)c(N2[C@@H]3CC[C@H]2CN(C(=O)c2ccc(F)cc2Cl)C3)c1 [compound 134] | < 1000
29 | CN(CC1CC1)S(=O)(=O)c1cc(Cl)c(O)c(N2[C@@H]3CC[C@H]2CN(C(=O)c2ccc(F)cc2Cl)C3)c1 [compound 096, 3-chloro-5-[(1S,5R)-3-(2-chloro-4-fluoro-benzoyl)-3,8-diazabicyclo[3.2.1]octan-8-yl]-N-(cyclopropylmethyl)-4-hydroxy-N-methyl-benzenesulfonamide] | < 1000
